Assay results: patent US20100137313A1 (ASTRAZENECA AB, priority 2008, published 2010)

The molecules below were run against S. pneumoniae Topoisomerase IV ATPase (ParE) (Streptococcus pneumoniae serotype 4, UniProt Q59961) (assay: S. pneumoniae Topoisomerase IV ATPase inhibition). Details: values marked * are an average of two or more data points.
Assay type: biochemical
In short: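 ParE ATPase (1.25 nM) run with 160 μM ATP and 5 μg/ml sheared salmon sperm DNA in Tris pH 8.0, Mg2+, glycerol, DTT, Brij-35. Phosphate released read by malachite green/molybdate absorbance at 650 nm. IC50 from 10 compound concentrations; DMSO (2%) as 0% and EDTA (20 μM) as 100% inhibition.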

S. pneumoniae Topoisomerase IV ATPase (ParE), sequence (Q59961 whole entry): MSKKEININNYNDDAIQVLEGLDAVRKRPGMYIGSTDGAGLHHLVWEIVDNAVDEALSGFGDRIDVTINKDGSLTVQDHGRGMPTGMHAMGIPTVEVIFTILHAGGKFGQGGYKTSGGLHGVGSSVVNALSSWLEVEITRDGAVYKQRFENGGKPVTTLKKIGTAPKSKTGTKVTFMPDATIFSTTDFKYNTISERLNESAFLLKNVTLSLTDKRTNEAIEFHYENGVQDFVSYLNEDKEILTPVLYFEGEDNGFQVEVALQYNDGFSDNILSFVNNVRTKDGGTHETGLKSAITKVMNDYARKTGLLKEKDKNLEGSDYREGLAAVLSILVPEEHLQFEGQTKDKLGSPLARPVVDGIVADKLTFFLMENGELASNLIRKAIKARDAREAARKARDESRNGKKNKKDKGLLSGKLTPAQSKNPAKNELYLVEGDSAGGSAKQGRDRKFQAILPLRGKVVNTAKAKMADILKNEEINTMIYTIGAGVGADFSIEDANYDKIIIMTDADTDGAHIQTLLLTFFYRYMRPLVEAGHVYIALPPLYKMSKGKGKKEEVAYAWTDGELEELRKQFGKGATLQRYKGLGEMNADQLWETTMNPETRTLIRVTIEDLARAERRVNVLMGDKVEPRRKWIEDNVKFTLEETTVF

Row | SMILES | % Inh (13 μM) of S. pneumoniae Topoisomerase IV ATPase [%]
1 | O=C(O)[C@@H]1C[C@H]1c1cccc(-c2cnc(Nc3ccc(F)c(Cl)c3)nc2-n2ccc(C(F)(F)F)n2)c1 [Example 575, (1R,2R)-2-(3-(2-(3-chloro-4-fluorophenvlamino)-4-(3-(trifluoromethyl)-1H-pyrazol-1-yl)pyrimidin-5-yl)phenyl)cyclopropanecarboxylic acid] | 100

Same assay, conditions: values marked * are an average of two or more data points, read-out: % Inh (13 μM) of S. pneumoniae Topoisomerase IV ATPase

Row | SMILES | inhibition at 13 µM [%]
2 | O=C(O)c1cncc(-c2cnc(Nc3ccc(F)c(Cl)c3)nc2-n2ccc(-c3ccsc3)n2)c1 [Example 533, 5-{2-[(3-chloro-4-fluorophenyl)amino]-4-[3-(thiophen-3-yl)-1H-pyrazol-1-yl]pyrimidin-5-yl}pyridine-3-carboxylic acid] | 100
3 | O=C(O)/C=C/c1cccc(-c2cnc(Nc3ccc(F)c(Cl)c3)nc2N[C@H]2CCOC2)c1 [Example 942, (S, E)-3-(3-(2-(3-chloro-4-fluorophenylamino)-4-(tetrahydrofuran-3-ylamino)pyrimidin-5-yl)phenyl)acrylic acid] | 100
4 | CN(C)CCCNc1nc(Nc2ccc(F)c(Cl)c2)ncc1-c1cccnc1 [Example 23, N^2-(3-chloro-4-fluorophenyl)-N^4-[3-(dimethylamino)propyl]-5-pyridin-3-ylpyrimidin-2,4-diamine] | 95.8
5 | O=C(O)C1CCCN(c2cccc(-c3cnc(Nc4ccc(F)c(Cl)c4)nc3-n3ccc(C(F)(F)F)n3)c2)C1 (stereo not shown) [Example 601, 1-(3-{2-[(3-chloro-4-fluorophenyl)amino]-4-[3-(trifluoromethyl)-1H-pyrazol-1-yl]pyrimidin-5-yl}phenyl)piperidine-3-carboxylic acid] | 100
6 | COc1cc(Nc2ncc(-c3cncc(C(=O)O)c3)c(-n3ccc(C(F)(F)F)n3)n2)cc(OC)c1 [Example 635, 5-{2-[(3,5-Dimethoxyphenyl)amino]-4-[3-(trifluoromethyl)-1H-pyrazol-1-yl]pyrimidin-5-yl}pyridine-3-carboxylic acid] | 100
7 | COCCNc1nc(Nc2ccc(F)c(Cl)c2)ncc1-c1cncc(C(=O)O)c1 [Example 234, 5-[2-[(3-chloro-4-fluorophenyl)amino]-4-(2-methoxyethylamino)-pyrimidin-5-yl]pyridine-3-carboxylic acid] | 73.2
8 | Cc1cc(C(F)(F)F)nn1-c1nc(Nc2ccc(F)c(Cl)c2)ncc1-c1cc(C(=O)O)c(=O)n(CCN2CCOCC2)c1 [Example 1076, 5-(2-(3-Chloro-4-fluorophenylamino)-4-(5-methyl-3-(trifluoromethyl)-1H-pyrazol-1-yl)pyrimidin-5-yl)-1-(2-morpholinoethyl)-2-oxo-1,2-dihydrpyridine-3-carboxylic acid] | 99
9 | Nc1cc(C(=O)O)cc(-c2cnc(Nc3ccc(F)c(Cl)c3)nc2N2CCOCC2)c1 [Example 491, 3-amino-5-{2-[(3-chloro-4-fluorophenyl)amino]-4-(morpholin-4-yl)pyrimidin-5-yl}benzoic acid] | 87
10 | Cc1cc(C(=O)O)nc(-c2cnc(Nc3ccc(F)c(Cl)c3)nc2-n2ccc(C(F)(F)F)n2)n1 [Example 879, 2′-(3-chloro-4-fluorophenylamino)-6-methyl-4′-(3-(trifluoromethyl)-1H-pyrazol-1-yl)-2,5′-bipyrimidine-4-carboxylic acid] | 91
11 | COc1cc(C)cc(Nc2ncc(-c3cnc(OC)c(C(=O)NS(C)(=O)=O)c3)c(-n3ccc(C(F)(F)F)n3)n2)c1 [Example 856, 2-methoxy-5-{2-[(3-methoxy-5-methylphenyl)amino]-4-[3-(trifluoromethyl)-1H-pyrazol-1-yl]pyrimidin-5-yl}-N-(methylsulfonyl)pyridine-3-carboxamide] | 100
12 | CCOC(=O)c1cncc(-c2cnc(Nc3ccc(F)c(Cl)c3)nc2NCCNC(=O)OC(C)(C)C)c1 [Example 98, 5-[4-(2-tert-Butoxycarbonylamino-ethylamino)-2-(3-chloro-4-fluoro-phenylamino)-pyrimidin-5-yl]-nicotinic acid ethyl ester] | 59.4
13 | CC(=O)Nc1ccn(-c2nc(Nc3ccc(F)c(Cl)c3)ncc2-c2cncc(C(=O)O)c2)n1 [Example 534, 5-{4-[3-(acetylamino)-1H-pyrazol-1-yl]-2-[(3-chloro-4-fluorophenyl)amino]pyrimidin-5-yl}pyridine-3-carboxylic acid] | 49
14 | COc1cc(Nc2ncc(-c3cncnc3)c(-n3nc(C(F)(F)F)cc3C)n2)cc(C(F)(F)F)c1 [Example 882, N-(3-methoxy-5-(trifluoromethyl)phenyl)-4-(5-methyl-3-(trifluoromethyl)-1H-pyrazol-1-yl)-5,5′-bipyrimidin-2-amine] | 100
15 | COc1ncc(-c2cnc(Nc3cc(C)cc(C#N)c3)nc2-n2nc(C(F)(F)F)cc2C)cc1C(=O)O [Example 781, 5-{2-[(3-cyano-5-methylphenyl)amino]-4-[5-methyl-3-(trifluoromethyl)-1H-pyrazol-1-yl]pyrimidin-5-yl}-2-methoxypyridine-3-carboxylic acid] | 99
16 | CCNC(=O)c1cccc(-c2cnc(Nc3ccc(F)c(Cl)c3)nc2NCCCN(C)C)c1 [Example 361, 3-(2-(3-chloro-4-fluorophenylamino)-4-(3-(dimethylamino)propylamino)pyrimidin-5-yl)-N-ethylbenzamide] | 94.8
17 | COC(=O)c1cc2cc(-c3cnc(Nc4ccc(F)c(Cl)c4)nc3NCCCN(C)C)ccc2s1 [Example 22, Methyl 5-{2-(3-chloro-4-fluorophenylamino)-4-[3-(dimethylamino)propylamino]pyrimidin-5-yl}benzo[b]thiophene-2-carboxylate] | 85.3
18 | COc1cc(Nc2ncc(-c3c[nH]c(=O)c(C(=O)O)c3)c(-n3ccc(C(F)(F)F)n3)n2)cc(OC)c1 [Example 1096, 5-(2-(3,5-Dimethoxyphenylamino)-4-(3-(trifluoromethyl)-1H-pyrazol-1-yl)pyrimidin-5-yl)-2-oxo-1,2-dihydropyridine-3-carboxylic acid] | 100
19 | CCOC(=O)CNc1nc(Nc2ccc(F)c(Cl)c2)ncc1-c1cncnc1 [Example 54, ethyl 2-[[2-[(3-chloro-4-fluorophenyl)amino]-5-pyrimidin-5-ylpyrimidin-4-yl]amino]acetate] | 77.5
20 | CCOC(=O)c1cc2cc(-c3cnc(Nc4ccc(F)c(Cl)c4)nc3N3CCOCC3)ccc2[nH]1 [Example 1054, Ethyl 5-(2-(3-chloro-4-fluorophenylamino)-4-morpholinopyrimidin-5-yl)-1H-indole-2-carboxylate] | 0
21 | OC1CCN(c2nc(Nc3ccc(F)c(Cl)c3)ncc2-c2cncnc2)C1 (stereo not shown) [Example 66, 1-[2-[(3-chloro-4-fluorophenyl)amino]-5-pyrimidin-5-ylpyrimidin-4-yl]pyrrolidin-3-ol] | 62.1
22 | CCOC(=O)c1cncc(-c2cnc(Nc3cc(OC)cc(-n4cnnn4)c3)nc2N2CCOCC2)c1 [Example 380, 5-[2-(3-Methoxy-5-tetrazol-1-yl-phenylamino)-4-morpholin-4-yl-pyrimidin-5-yl]-nicotinic acid ethyl ester] | 37
23 | COc1cc(Nc2ncc(-c3cnc(OCCNC(C)=O)c(C(=O)NS(C)(=O)=O)c3)c(-n3nc(C(F)(F)F)cc3C)n2)cc(OC)c1 [Example 969, 2-(2-acetamidoethoxy)-5-(2-(3,5-dimethoxyphenylamino)-4-(5-methyl-3-(trifluoromethyl)-1H-pyrazol-1-yl)pyrimidin-5-yl)-N-(methylsulfonyl)nicotinamide] | 100
24 | COC(=O)c1cc(-c2cnc(Nc3ccc(F)c(Cl)c3)nc2-n2ccc(C(F)(F)F)n2)cnc1OC [Example 1010, Methyl 5-(2-(3-chloro-4-fluorophenylamino)-4-(3-(trifluoromethyl)-1H-pyrazol-1-yl)pyrimidin-5-yl)-2-methoxynicotinate] | 81
25 | O=S(=O)(c1cncc(-c2cnc(Nc3ccc(F)c(Cl)c3)nc2-n2ccc(C(F)(F)F)n2)c1)N1CCOCC1 [Example 1035] | 51
26 | CC(C)Oc1ncc(-c2cnc(Nc3ccc(F)c(Cl)c3)nc2-n2ccc(C(F)(F)F)n2)cc1C(=O)O [Example 959, 5-(2-(3-chloro-4-fluorophenylamino)-4-(3-(trifluoromethyl)-1H-pyrazol-1-yl)pyrimidin-5-yl)-2-isopropoxynicotinic acid] | 93
27 | CS(=O)(=O)c1cncc(-c2cnc(Nc3ccc(F)c(Cl)c3)nc2-n2ccc(C(F)(F)F)n2)c1 [Example 990, N-(3-chloro-4-fluorophenyl)-5-(5-(methylsulfonyl)pyridin-3-yl)-4-(3-(trifluoromethyl)-1H-pyrazol-1-yl)pyrimidin-2-amine] | 100
28 | CONC(=O)c1cccc(-c2cnc(Nc3ccc(F)c(Cl)c3)nc2NCCCN(C)C)c1 [Example 360, 3-(2-(3-chloro-4-fluorophenylamino)-4-(3-(dimethylamino)propylamino)pyrimidin-5-yl)-N-methoxybenzamide] | 112
29 | CNC(=O)CNC(=O)c1cncc(-c2cnc(Nc3ccc(F)c(Cl)c3)nc2-n2nc(C(F)(F)F)cc2C)c1 [Example 930, 5-(2-(3-chloro-4-fluorophenylamino)-4-(5-methyl-3-(trifluoromethyl)-1H-pyrazol-1-yl)pyrimidin-5-yl)-N-(2-(methylamino)-2-oxoethyl)nicotinamide] | 72
30 | CCOC(=O)c1cncc(-c2cnc(Nc3ccc(F)c(Cl)c3)nc2N[C@@H]2CCOC2)c1 [Example 146, (R)-ethyl 5-(2-(3-chloro-4-fluorophenylamino)-4-(tetrahydrofuran-3-ylamino)pyrimidin-5-yl)nicotinate] | 79.7
31 | O=C(O)/C=C/c1cccc(-c2cnc(Nc3cc(F)cc(Cl)c3)nc2N2CCOCC2)c1 [Example 409, (E)-3-{3-[2-(3-Chloro-5-fluoro-phenylamino)-4-morpholin-4-yl-pyrimidin-5-yl]-phenyl}-acrylic acid] | 77
